Reference: patent US12441811B2, “Compositions and methods for treating serpin B13 disorders” (REGENTS OF THE UNIVERSITY OF MINNESOTA, priority 2019, dated 2025)

Columns and labels:
[1] = test system: Ngn3+ endocrine progenitor cells; assay: Ngn3+ cells in embryonic pancreas explants (E12.5) cultured in vitro; format: cell-based, mouse; conditions: for number of Ngn3+ endocrine progenitor cells: E12.5 explants, recombinant protein 10 μg/mL, 72 hours vs buffer
Protocol: Isolation and culture of embryonic pancreas explants. The isolation and culture of embryonic pancreas explants was performed as described elsewhere, with minor modifications.
Processing of pancreatic tissue for immunofluorescence microscopy. The pancreatic tissues were isolated and fixed either overnight (adult pancreases), or for one hour (embryonic pancreas explants), in 2% PFA (pH 7.4), followed by a two-step saturation process: first in a 30% sucrose solution in PBS and then in optimal cutting temperature (OCT) compound. After complete saturation, the tissues were imbedded in OCT using Cryomold and then snap frozen in an ethanol/dry ice bath. The OCT blocks were serially cut through the entire organ to obtain representative sections every 600 μm (6 to 8 sections per adult pancreas), 50 μm (12 to 14 sections per E16.5 embryonic pancreas), 35 μm (10 to 12 sections per E14.5 embryonic pancreas), or 15 μm (10 to 12 sections per E12.5 embryonic pancreas cultured for 1 to 3 days). For the embryonic linage tracing experiments, three largest sections were taken for the analysis. For all other experiments involving immunofluorescence microscopy, all obtained sections were analyzed. […]
The sections from the pancreases of embryos at age E14.5 and E16.5, and newborn pups (OP), were stained with anti-Ngn3 antibody to determine the total number of endocrine progenitors cells for all sections per explant combined (FIG. 9G, FIG. 17A). Alternatively, the sections representing the pancreases of embryos at age E12.5 (which are considerably smaller) were stained with both anti-Ngn3 and anti-CK19 antibodies to determine the fraction of CK19-positive area that was occupied by Ngn3− positive staining (FIGS. 9D, 10A, 10C, 12D, 12G, 12J and FIGS. 15A, 20B). The following formula was used to adjust for any differences in the pancreas size: (Ngn3^+ cell number/μm^2 of CK19^+ cells)×10^5.
Image analysis. Embryonic images were processed with a plugin-Trainable Weka Segmentation v3.2.28 (Hamilton, New Zealand) for ImageJ v.1.52jv software. To classify and quantify the images in unbiased fashion, we defined the following four classes for the analysis: Ngn3^+ cells, the clusters of cytokeratin 19^+ cells, the negatively stained areas, and background (e.g., the area outside of tissue sample). Alternatively, the Visiopharm version 6.0 software (Visiopharm, Hoerholm, Denmark) with Author module was used to create applications to outline Ngn3^+ cells or double positive cells expressing YFP and insulin using preprocessing and postprocessing steps, when necessary. In addition, the Engine module of the Visiophram module was used to execute created applications and unbiasedly analyze the images. For the unbiased quantitative analysis of β-cells and islets in the whole pancreatic sections, Visiopharm Author module was trained to recognize insulin-positive β-cell clusters with diameter greater than 50 μm as well as negatively stained section area. In all studies involving microscopy the treatment assignments were blinded to investigators who performed data analysis.

Notch1 receptor = assay: Examination of Notch1 receptor in embryonic pancreas (Western blot, flow cytometry, qPCR); format: cell-based, mouse
Protocol: Staining for flow cytometry. BD LSRFortessa X-20, LSR-II and FACSCanto-II were used for FACS analysis. Positive populations of cells were gated and counted using FlowJo ver.10 software. For the islet cells isolated from adult mice, intracellular staining to detect glucagon and insulin was used to count single-positive as well as double-negative cells. In the cells isolated from embryonic pancreas explants, intracellular staining was performed to detect Ngn3, CK19, and active Notch, and extracellular staining was used to detect the extracellular Notch domain, EpCAM, CD31 and CD45.
Western blotting. Pancreatic tissues were processed from E16.5 embryos as single samples and directly used for lysis. Embryonic pancreas explants from E12.5 embryos were cultured in vitro with anti-serpinB13 mAb (or control Ab) for 24 or 48 hours, then, three explant cultures were combined and lysed. The samples were washed two times in ice-cold PBS and lysed with gentle pipetting for 10 minutes with additional tap-vortexing for 15 minutes in RIPA buffer containing Halt protease inhibitors (cat. no. 1862209, Thermo Fisher Scientific). Equal amounts of protein in each sample were run under reducing conditions on Bis-Tris BOLT gradient gel (4-12%) or NUPAGE Tris-acetate gradient gels (4-12%) (both from Thermo Fisher Scientific), and transferred onto […] nitrocellulose or activated PVDF membranes. The membranes were blocked with 5% skim milk and stained with primary and secondary antibodies, as indicated. The Western blots were developed with SuperSignal West Pico Chemiluminescent Substrate or West Femto Maximum Sensitivity Substrate (cat. nos. […] and […], respectively; both from Thermo Scientific), and scanned using the ChemiDoc™ MP Imaging System (Bio-Rad, Hercules, […], USA).
Quantitative real-time PCR. Total RNA from embryonic pancreases was extracted using the RNeasy UCP Micro kit (cat. no. 73934; Qiagen, Hilden, Germany) to measure expression of the Notch1 gene. One hundred to […] of the total RNA per group was reverse transcribed to cDNA using the iScript cDNA Synthesis Kit (cat. no. 1708891; Bio-Rad). Quantitative PCR assays were performed on an Applied Biosystems QuantStudio 3 real-time PCR system using cDNA and the Kapa Sybr Fast reagent (cat. no. 0795959100; Roche). Actin-R was used as a reference gene. The primer sequence for Notch1 was as follows: forward—5′[…]3′ and reverse—5′ […]3′.

Molecule | number of Ngn3+ endocrine progenitor cells [1] | also measured
CC(C)C[C@H](NC(=O)[C@H]1O[C@@H]1C(=O)O)C(=O)NCCCCN=C(N)N [Clone E64, reference compound] |  | size of the Ngn3+ cell population ([1]; E12.5 WT explants, E64 10 μM, 48 hours vs DMSO): significantly reduced; mAb-induced Notch1 degradation fragments in presence of protease inhibitor (Notch1 receptor; E64 1 μM with antibody for 48 hours): almost completely prevented
chicken ovalbumin: non-inhibitory structural homolog and founding member of the clade B serpin family, used as control [reference compound] | not | 
recombinant CatL: recombinant mouse cathepsin L |  | Ngn3 cells ([1]; recombinant mouse cathepsin L 2.5 μg/mL for 4 hours vs buffer): induced additional; cleavage of the extracellular domain of Notch1 (Notch1 receptor; recombinant CatL 2.5 μg/mL for last 4 hours of 48-hour incubation): cleaved
recombinant serpinB13 protein: recombinant serpinB13 (mouse and human not distinguished at this place) (protein) MDSLGAVSTRLGFDLFKELKKTNDGNIFFSPVGILTAIGMVLLGTRGATASQLEEVFHSEKETKSSRIKAEEKEVIENTEAVHQQFQKFLTEISKLTNDYELNITNRLFGEKTYLFLQKYLDYVEKYYHASLEPVDFVNAADESRKKINSWVESKTNEKIKDLFPDGSISSSTKLVLVNMVYFKGQWDREFKKENTKEEKFWMNKSTSKSVQMMTQSHSFSFTFLEDLQAKILGIPYKNNDLSMFVLLPNDIDGLEKIIDKISPEKLVEWTSPGHMEERKVNLHLPRFEVEDGYDLEAVLAAMGMGDAFSEHKADYSGMSSGSGLYAQKFLHSSFVAVTEEGTEAAAATGIGFTVTSAPGHENVHCNHPFLFFIRHNESNSILFFGRFSSP | downregulate | 
human recombinant serpinB13: recombinant human serpinB13 expressed in baculovirus (protein) MDSLGAVSTRLGFDLFKELKKTNDGNIFFSPVGILTAIGMVLLGTRGATASQLEEVFHSEKETKSSRIKAEEKEVIENTEAVHQQFQKFLTEISKLTNDYELNITNRLFGEKTYLFLQKYLDYVEKYYHASLEPVDFVNAADESRKKINSWVESKTNEKIKDLFPDGSISSSTKLVLVNMVYFKGQWDREFKKENTKEEKFWMNKSTSKSVQMMTQSHSFSFTFLEDLQAKILGIPYKNNDLSMFVLLPNDIDGLEKIIDKISPEKLVEWTSPGHMEERKVNLHLPRFEVEDGYDLEAVLAAMGMGDAFSEHKADYSGMSSGSGLYAQKFLHSSFVAVTEEGTEAAAATGIGFTVTSAPGHENVHCNHPFLFFIRHNESNSILFFGRFSSP | significant drop | 
mouse recombinant serpinB13: recombinant serpinB13 of mouse (protein) MDSLGTAATQFLFDLFKELNKTNDGNVFFSPVGISTAIGMIILGTRGATASELQKVLYTEQGTESSRIKSEEEEIEKREEIHHQLQMLLTEISKFSNDYDLIISNRLFGEKTYLFLQKYIDYVEKYYHASLEPVDFVNAADESRKKINSWVESQTNVKVKDLFPEGSLNSSTKLVLINTVYFKGLWDREFKKEHTKEEDFWLNKNLSKPVQMMALCSSFNFTFLEDLQAKIVGIPYKNNDISMFVLLPNDIDGLEKIMDKMSPEKLVEWTSPGHLEQRRVDLRLPRLQVEETYDLEPVLEAVGIHSAFSEHADYSGMSARSGLHAQNFLHRSFLVVTEEGVEATAGTGVGLKVSSAASCELVHCNHPFLFFIRHRESDSILFFGKFSSP | significant drop | 
